In experiment [1] the target is T1, form B of monoamine oxydase (Rattus norvegicus, UniProt P19643).
T1 construct: monoamine oxydase in rat brain tissue; from tissue; host or cells: homogenized entire brain of male Sprague-Dawley rat
T1 sequence (P19643 1-520): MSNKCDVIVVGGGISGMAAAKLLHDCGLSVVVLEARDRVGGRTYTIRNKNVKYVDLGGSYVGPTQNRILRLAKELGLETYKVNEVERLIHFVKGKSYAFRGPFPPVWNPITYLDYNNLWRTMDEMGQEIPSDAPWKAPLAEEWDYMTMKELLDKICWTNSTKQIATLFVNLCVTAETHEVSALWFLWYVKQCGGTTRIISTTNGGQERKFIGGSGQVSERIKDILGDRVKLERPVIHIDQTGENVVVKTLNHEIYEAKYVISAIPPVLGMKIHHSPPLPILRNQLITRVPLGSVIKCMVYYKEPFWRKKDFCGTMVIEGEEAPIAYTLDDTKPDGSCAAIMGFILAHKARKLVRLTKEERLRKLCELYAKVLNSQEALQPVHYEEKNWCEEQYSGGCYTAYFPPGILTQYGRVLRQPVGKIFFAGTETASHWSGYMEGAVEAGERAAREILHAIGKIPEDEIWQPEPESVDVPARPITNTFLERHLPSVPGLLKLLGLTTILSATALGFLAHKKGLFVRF
The experiment is described as follows: in vitro inhibition of monoamine oxydase form B (homogenized rat brain, (14C) phenylethylamine substrate). In kind it is biochemical, rat (male Sprague-Dawley, entire brain). To be noted: for Ki: rat brain homogenate, pH 7.4, (14C) phenylethylamine; for KIA /KIB, no pre-incubation / KIA /KIB, after 20 min pre-incubation: selectivity ratio form A / form B. As for the experimental part: (§1) Inhibition constants KIA and KIB on forms A and B of mono-
(§2) amine oxydase (homogenized entire brain of a male rate
(§3) (Sprague-Dawley): 1 g of tissue to 16 ml of phosphate
(§4) The inhibition constants were calculated from the formula: KI =
(§5) as the selective substrates for forms A and B respectively of monoamine oxydase.

Experiment [2] concerns the target T2, form A of monoamine oxydase (Rattus norvegicus, UniProt P21396).
T2 construct: monoamine oxydase in rat brain tissue; from tissue; host or cells: homogenized entire brain of male Sprague-Dawley rat
T2 sequence (P21396 1-526): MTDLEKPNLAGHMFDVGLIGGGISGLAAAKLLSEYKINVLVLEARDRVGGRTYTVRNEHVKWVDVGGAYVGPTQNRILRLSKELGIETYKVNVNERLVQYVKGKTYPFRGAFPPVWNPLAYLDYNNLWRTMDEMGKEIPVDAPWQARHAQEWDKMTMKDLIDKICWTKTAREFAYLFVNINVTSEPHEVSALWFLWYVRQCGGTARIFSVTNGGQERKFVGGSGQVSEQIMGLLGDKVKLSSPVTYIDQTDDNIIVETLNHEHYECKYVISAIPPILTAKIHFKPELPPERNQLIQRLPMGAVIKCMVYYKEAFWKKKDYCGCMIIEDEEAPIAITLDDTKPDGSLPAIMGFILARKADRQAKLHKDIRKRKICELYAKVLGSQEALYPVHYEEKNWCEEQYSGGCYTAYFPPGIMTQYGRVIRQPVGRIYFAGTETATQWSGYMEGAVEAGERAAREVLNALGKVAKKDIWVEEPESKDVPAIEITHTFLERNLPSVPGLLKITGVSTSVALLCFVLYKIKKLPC
The experiment can be described thus: in vitro inhibition of monoamine oxydase form A (homogenized rat brain, (14C) serotonine substrate). In kind it is biochemical, rat (male Sprague-Dawley, entire brain). The note with it: rat brain homogenate. The method, then:
Pharmacol., 1983, 35, 161-165.
as §1, §2, §3, §4
CI50 /l + [S]/Km taking [S] = 48 μM for (^14 C)
serotonine and Km = 100 μM, or [S] = 12 μM for (^14 C)
phenylethylamine and Km = 6 μM
as §5

The mark [3] stands for this setting: no pre-incubation, read-out: Inhibition constant KIB, no pre-incubation.
[4] abbreviates: no pre-incubation, pH 7.4, read-out: Inhibition constant KIA, no pre-incubation.
The mark [5] stands for this setting: after 20 min pre-incubation, read-out: Inhibition constant KIB, after 20 min pre-incubation.
Where [6] appears, read: after 20 min pre-incubation, pH 7.4, read-out: Inhibition constant KIA, after 20 min pre-incubation.

The structures appear in SMILES notation. Where two headings read alike, the source gives them in different places.

Consider `OCCCCc1ccc(OCc2cccc(Cl)c2)cc1` [compound 200123], for which the Ki in experiment [1] (setting [3]) was 232 nM; in experiment [2] (setting [4]), over 1720 nM. Also, in experiment [1] (no pre-incubation), the “KIA /KIB, no pre-incubation” value is given as over 7.
For the molecule `COCC(COc1ccc(OCc2cccc(Cl)c2)cc1)OC` (racemic) [compound 200210], the Ki in experiment [1] (setting [5]) was 570 nM; in experiment [1] (setting [3]), 403 nM; in experiment [2] (setting [6]) it was over 1720 nM; in experiment [2] (setting [4]), over 1720 nM. For the same molecule, the “KIA /KIB, after 20 min pre-incubation” value in experiment [1] (after 20 min pre-incubation) was over 3. Further, the “KIA /KIB, no pre-incubation” value in experiment [1] (no pre-incubation) was over 4.
As for `COC(CO)COc1ccc(OCc2cccc(Cl)c2)cc1` (racemic) [compound 200213, [(chloro-3 phenylmethyloxy)-4 phenoxy]-3 methoxy-2 propanol-1 (±)], the values for the Ki in experiment [1] (setting [3]) and in experiment [2] (setting [4]) were 543 nM and over 5170 nM, respectively. For the same molecule, the “KIA /KIB, no pre-incubation” value in experiment [1] (no pre-incubation) is reported as over 9.5.
As to `COC[C@H](O)COc1ccc(OCc2cccc(Cl)c2)cc1` [compound 280040, [(chloro-3 phenylmethyloxy)-4 phenoxy]-1 methoxy-3 propanol-2 S (+)], the Ki in experiment [2] (setting [6]) was found to be 1650 nM.
Turning to `COCCCC(O)c1ccc(OCc2cccc(Cl)c2)cc1` (racemic) [compound 280190, [(chloro-3 phenylmethyloxy)-4 phenyl]-1 methoxy-4 butanol-1 (±)], the Ki in experiment [1] (setting [5]) came out at 79 nM; in experiment [2] (setting [6]), 5430 nM. Besides, the “KIA /KIB, after 20 min pre-incubation” value in experiment [1] (after 20 min pre-incubation) is listed as 69.

The values are drawn from patent US4971995A, “Alkyl or benzyl phenol ethers, their preparation and their therapeutic uses” (Delande S.A., priority 1988, dated 1990).
